Active and inactive are the calls of the source. The rule behind the calls is not given here.
How the values were obtained:
KB = assay: Growth inhibition of human KB cells at 10 uM after 72 hrs by MTS assay; type: functional; conditions: read-out: GI
[1] = Growth inhibition of human HCT116 cells at 10 uM after 72 hrs by MTS assay; type: functional; conditions: HCT-116, 72 h, read-out: GI
[2] = Growth inhibition of human HL60 cells at 10 uM after 72 hrs by MTS assay; type: functional; conditions: HL-60, 72 h, read-out: GI
MCF7 = assay: Growth inhibition of human MCF7 cells at 10 uM after 72 hrs by MTS assay; type: functional; conditions: MCF7, 72 h, read-out: GI
HL-60 [3] = assay: Induction of necrosis in intact human HL60 cells assessed as cytosolic LDH release at 50 uM; type: functional, cell-based
HL-60 [4] = assay: Induction of apoptosis in human HL60 cells assessed as dead cells level at 100 nM annexin V-PE and 7-AAD staining based by flow cytometry (reference value: 0.4%); type: functional
HL-60 [5] = assay: Induction of cell cycle arrest in human HL60 cells assessed as accumulation at S phase at 50 nM after 48 hrs by propidium iodide staining based flow cytometry (reference value: 45%); type: functional
HL-60 [6] = assay: Induction of apoptosis in human HL60 cells assessed as early apoptotic cells level at 100 nM annexin V-PE and 7-AAD staining based by flow cytometry (reference value: 18.5%); type: functional
HL-60 [7] = assay: Induction of apoptosis in human HL60 cells assessed as late apoptosis cells level at 100 nM annexin V-PE and 7-AAD staining based by flow cytometry (reference value: 0.4%); type: functional
HL-60 [8] = assay: Induction of apoptosis in human HL60 cells assessed as intact cells level at 100 nM annexin V-PE and 7-AAD staining based by flow cytometry (reference value: 80.7%); type: functional
HL-60 [9] = assay: Induction of cell cycle arrest in human HL60 cells assessed as accumulation at G2/M phase at 50 nM after 48 hrs by propidium iodide staining based flow cytometry (reference value: 11.6%); type: functional
HL-60 [10] = assay: Induction of cell cycle arrest in human HL60 cells assessed as accumulation at subG1 phase at 50 nM after 48 hrs by propidium iodide staining based flow cytometry (reference value: 0.5%); type: functional
HL-60 [11] = assay: Induction of cell cycle arrest in human HL60 cells assessed as accumulation at G0/G1 phase at 50 nM after 48 hrs by propidium iodide staining based flow cytometry (reference value: 42.9%); type: functional
HL-60 [12] = assay: Induction of necrosis in intact human HL60 cells assessed as cytosolic LDH release at 1 uM; type: functional, cell-based

| Structure (SMILES) | inhibition of growth at 10 µM (KB) | inhibition of growth at 10 µM [1] | inhibition of growth at 10 µM [2] | inhibition of growth at 10 µM (MCF7) | other results |
| --- | --- | --- | --- | --- | --- |
| COC(=O)C1(Cc2ccccc2)CC(=O)OC1(C)c1cccc(C(F)(F)F)c1 (stereo unspecified) | 34% | 14% | 20% | 14% |  |
| CCC1(c2ccccc2)OC(=O)CC1(Cc1ccc(OC)cc1)C(=O)OC (stereo unspecified) | 11% | 28% | 30% | 21% |  |
| COC(=O)C1(Cc2ccc(OC)cc2)CC(=O)OC1c1ccc(C(F)(F)F)cc1 (stereo unspecified) | 0% | 0% | 2% | 4% |  |
| COC(=O)C1(Cc2cccc(OC)c2)CC(=O)OC1(C)c1ccccc1 (stereo unspecified) | 5% | 14% | 30% | 16% |  |
| COC(=O)C1(Cc2ccccc2)CC(=O)OC1(C)c1cc(OC)c(OC)c(OC)c1 (stereo unspecified) | 0% | 0% | 7% | 2% |  |
| CC1=CC(=O)c2ccccc2C1=O |  |  |  |  | Activity (HL-60 [3]): Active |
| COC(=O)c1ccc(CC2(C(=O)OC)CC(=O)OC2(C)c2ccccc2)cc1 (stereo unspecified) | 22% | 44% | 43% | 35% |  |
| COC(=O)[C@]1(Cc2ccc(OC)cc2)CC(=O)O[C@]1(C)c1ccccc1 | 15% | 0% | 24% | 0% |  |
| COC(=O)C1(Cc2ccc3c(c2)OCO3)CC(=O)OC1c1cc(OC)c(OC)c(OC)c1 (stereo unspecified) | 0% | 22% | 10% | 8% |  |
| CCCCCCC1OC(=O)CC1(Cc1ccc(OC)cc1)C(=O)OC (stereo unspecified) | 13% | 12% | 8% | 28% |  |
| COC(=O)C1(Cc2ccc(OC)cc2)CC(=O)OC1(C)c1cccc(C(F)(F)F)c1 (stereo unspecified) | 38% | 30% | 52% | 46% |  |
| COC(=O)C1(Cc2cc(OC)c(OC)c(OC)c2)CC(=O)OC1c1cc(OC)c(OC)c(OC)c1 (stereo unspecified) | 0% | 13% | 0% | 3% |  |
| COC(=O)C1(Cc2ccc(OC)cc2)CC(=O)OC1c1ccccc1 (stereo unspecified) | 19% | 4% | 15% | 0% |  |
| COc1cccc2c1C(=O)c1c(O)c3c(c(O)c1C2=O)C[C@@](O)(C(=O)CO)C[C@@H]3O[C@H]1C[C@H](N)[C@H](O)[C@H](C)O1 [DOXORUBICIN] |  |  |  |  | Activity (HL-60 [4]): 0.5%; Activity (HL-60 [5]): 32.5%; Activity (HL-60 [6]): 81.65%; Activity (HL-60 [7]): 3.15%; Activity (HL-60 [8]): 14.7%; Activity (HL-60 [9]): 40%; Activity (HL-60 [10]): 4.5%; Activity (HL-60 [11]): 23%; Activity (HL-60 [12]): inactive |
| COC(=O)C1(Cc2ccc(OC)cc2)CC(=O)OC1c1ccc(F)cc1 (stereo unspecified) | 33% | 0% | 37% | 4% |  |
| COC(=O)c1ccc(CC2(C(=O)OC)CC(=O)OC2c2ccccc2)cc1 (stereo unspecified) | 12% | 0% | 19% | 0% |  |
| COC(=O)C1(Cc2ccccc2OC)CC(=O)OC1c1ccccc1 (stereo unspecified) | 7% | 23% | 42% | 18% |  |
| COC(=O)C1(Cc2ccccc2)CC(=O)OC12CCCCC2 (stereo unspecified) | 7% | 0% | 4% | 1% |  |
| COC(=O)C1(Cc2ccc(OC)cc2)CC(=O)OC1c1cc(OC)c(OC)c(OC)c1 (stereo unspecified) | 16% | 24% | 32% | 27% |  |
| COC(=O)[C@@]1(Cc2ccc(OC)cc2)CC(=O)O[C@]1(C)c1ccccc1 | 98% | 56% | 68% | 59% |  |
| COC(=O)C1(Cc2ccccc2)CC(=O)OC1c1cc(OC)c(OC)c(OC)c1 (stereo unspecified) | 2% | 7% | 27% | 17% |  |
